Holding throughout (assay): TGFα-shedding assay-based GPCR screening with chimeric Gα subunit proteins
Type in all cases: cell-based

Assay [1] concerns the target T1, 348 GPCRs (Homo sapiens, UniProt O00421).
T1 construct: expressed in transfected cells; host or cells: HEK293A
T1 sequence (O00421 1-344): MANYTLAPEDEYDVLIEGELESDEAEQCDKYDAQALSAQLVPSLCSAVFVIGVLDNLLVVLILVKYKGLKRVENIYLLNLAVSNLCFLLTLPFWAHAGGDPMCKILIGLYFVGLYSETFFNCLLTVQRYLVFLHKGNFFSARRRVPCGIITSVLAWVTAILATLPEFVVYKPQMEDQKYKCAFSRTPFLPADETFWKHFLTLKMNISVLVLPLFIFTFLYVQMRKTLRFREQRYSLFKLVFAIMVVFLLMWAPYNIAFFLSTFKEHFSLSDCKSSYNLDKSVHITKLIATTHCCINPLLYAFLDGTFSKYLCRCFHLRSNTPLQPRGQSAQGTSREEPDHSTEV
To be noted: 10µM, Favipiravir 100μM.

For assay [2], the target named is T2, 348 GPCRs (Homo sapiens, UniProt P25100).
T2 construct: expressed in transfected cells; host or cells: HEK293A
T2 sequence (P25100 1-572): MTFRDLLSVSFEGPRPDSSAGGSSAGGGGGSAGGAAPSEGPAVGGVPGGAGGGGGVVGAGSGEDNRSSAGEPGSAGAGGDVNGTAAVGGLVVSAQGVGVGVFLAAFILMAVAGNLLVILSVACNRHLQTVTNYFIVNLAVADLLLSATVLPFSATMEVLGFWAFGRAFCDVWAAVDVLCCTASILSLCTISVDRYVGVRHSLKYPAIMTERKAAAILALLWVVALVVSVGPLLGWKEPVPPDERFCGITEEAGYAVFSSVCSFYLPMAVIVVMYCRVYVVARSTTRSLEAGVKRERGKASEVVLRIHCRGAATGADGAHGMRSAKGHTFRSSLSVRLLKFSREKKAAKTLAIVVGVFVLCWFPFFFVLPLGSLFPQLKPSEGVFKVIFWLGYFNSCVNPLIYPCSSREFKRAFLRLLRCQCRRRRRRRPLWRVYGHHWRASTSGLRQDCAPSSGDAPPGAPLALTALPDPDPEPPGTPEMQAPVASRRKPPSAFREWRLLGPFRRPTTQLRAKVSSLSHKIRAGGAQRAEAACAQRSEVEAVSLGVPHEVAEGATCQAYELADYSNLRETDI

Assay [3] has as its target T3, 348 GPCRs (Homo sapiens, UniProt P49683).
T3 construct: expressed in transfected cells; host or cells: HEK293A
T3 sequence (P49683 1-370): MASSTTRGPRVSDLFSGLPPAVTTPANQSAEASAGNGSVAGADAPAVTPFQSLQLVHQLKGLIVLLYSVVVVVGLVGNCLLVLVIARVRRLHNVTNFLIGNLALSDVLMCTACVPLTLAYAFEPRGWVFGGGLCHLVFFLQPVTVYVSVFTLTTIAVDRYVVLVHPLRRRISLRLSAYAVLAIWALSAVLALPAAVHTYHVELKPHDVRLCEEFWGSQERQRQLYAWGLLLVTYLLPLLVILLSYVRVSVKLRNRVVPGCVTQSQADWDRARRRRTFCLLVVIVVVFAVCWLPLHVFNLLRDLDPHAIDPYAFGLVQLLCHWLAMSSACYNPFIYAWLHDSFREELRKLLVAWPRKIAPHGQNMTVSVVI
The following applies: 10µM, Favipiravir 100μM.

Assay [4] addresses T4, 348 GPCRs (Homo sapiens, UniProt Q5T601).
T4 construct: expressed in transfected cells; host or cells: HEK293A
T4 sequence (Q5T601 20-910): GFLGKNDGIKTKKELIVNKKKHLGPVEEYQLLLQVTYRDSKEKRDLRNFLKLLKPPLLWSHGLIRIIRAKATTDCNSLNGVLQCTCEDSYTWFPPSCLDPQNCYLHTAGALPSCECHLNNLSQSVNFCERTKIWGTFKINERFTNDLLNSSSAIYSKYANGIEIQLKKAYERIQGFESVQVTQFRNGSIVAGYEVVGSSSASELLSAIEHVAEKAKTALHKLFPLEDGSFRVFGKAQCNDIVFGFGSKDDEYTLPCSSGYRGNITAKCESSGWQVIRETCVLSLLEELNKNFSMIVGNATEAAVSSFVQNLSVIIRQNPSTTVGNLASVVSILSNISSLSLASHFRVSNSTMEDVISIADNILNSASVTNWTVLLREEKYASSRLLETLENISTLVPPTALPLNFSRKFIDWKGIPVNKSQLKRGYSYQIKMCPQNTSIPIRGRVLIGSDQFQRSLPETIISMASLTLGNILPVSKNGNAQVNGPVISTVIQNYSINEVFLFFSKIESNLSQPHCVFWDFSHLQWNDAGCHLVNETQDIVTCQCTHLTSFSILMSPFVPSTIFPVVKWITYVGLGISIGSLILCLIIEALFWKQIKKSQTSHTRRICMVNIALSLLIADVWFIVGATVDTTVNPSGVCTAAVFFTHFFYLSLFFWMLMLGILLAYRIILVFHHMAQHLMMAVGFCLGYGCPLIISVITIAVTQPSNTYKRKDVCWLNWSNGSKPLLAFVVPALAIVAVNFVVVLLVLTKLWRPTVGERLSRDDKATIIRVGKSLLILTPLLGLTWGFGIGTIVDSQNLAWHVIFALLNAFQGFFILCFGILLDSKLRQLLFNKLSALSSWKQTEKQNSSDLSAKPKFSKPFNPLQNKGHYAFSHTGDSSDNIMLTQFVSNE

In assay [5] the target is T5, 348 GPCRs (Homo sapiens, UniProt Q9NYW4).
T5 construct: expressed in transfected cells; host or cells: HEK293A
T5 sequence (Q9NYW4 1-299): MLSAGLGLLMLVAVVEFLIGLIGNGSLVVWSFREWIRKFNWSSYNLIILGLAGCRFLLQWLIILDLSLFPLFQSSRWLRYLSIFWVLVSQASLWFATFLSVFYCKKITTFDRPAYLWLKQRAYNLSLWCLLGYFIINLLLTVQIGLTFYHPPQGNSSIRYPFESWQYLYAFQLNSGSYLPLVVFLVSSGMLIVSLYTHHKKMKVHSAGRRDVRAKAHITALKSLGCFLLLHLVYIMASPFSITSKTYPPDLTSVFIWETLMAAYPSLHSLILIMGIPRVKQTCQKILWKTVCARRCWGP
To be noted: 10µM, Favipiravir 100μM.

[6] abbreviates: read-out: % GPCR activation compared to TPA, CCRL2 (chemokine (C-C motif) receptor-like 2).
Where [7] appears, read: read-out: % GPCR activation compared to TPA, GPCR α1D (adrenoceptor alpha 1D).
Setting [8] is: read-out: % GPCR activation compared to TPA, PRLHR (prolactin releasing hormone receptor).
Setting [9] is: read-out: % GPCR activation compared to TPA, GPCR GPR110 (G-protein-coupled receptor 110 (ADGRF1)).
The mark [10] stands for this setting: read-out: % GPCR activation compared to TPA, TAS2R5 (taste receptor, type 2, member 5).
The mark [11] stands for this setting: CCRL2 (chemokine (C-C motif) receptor-like 2), read-out: % GPCR activation compared to TPA.
Where [12] appears, read: PRLHR (prolactin releasing hormone receptor), read-out: % GPCR activation compared to TPA.
Setting [13] is: TAS2R5 (taste receptor, type 2, member 5), read-out: % GPCR activation compared to TPA.
[14] abbreviates: GPCR α1D (adrenoceptor alpha 1D), read-out: % GPCR activation compared to TPA.
The mark [15] stands for this setting: GPCR GPR110 (G-protein-coupled receptor 110 (ADGRF1)), read-out: % GPCR activation compared to TPA.

Where two headings read alike, the source gives them in different places.

Regarding `CC(C)OC(=O)[C@H](C)N[P@](=O)(OC[C@H]1O[C@@H](n2ccc(=O)[nH]c2=O)[C@](C)(F)[C@@H]1O)Oc1ccccc1` [sofosbuvir], the activation at 10 µM was determined as 1.66% on 348 GPCRs [1] (setting [6]), 0.0197% on 348 GPCRs [2] (setting [7]) and 0.252% on 348 GPCRs [4] (setting [9]). The results for the activation at 100 µM on 348 GPCRs [3] (setting [8]) and at 348 GPCRs [5] (setting [10]) were -8.24% and -1.2%, respectively.
On to `NC(=O)c1nc(F)cnc1O` [favipiravir, 6-fluoro-3-hydroxy-2-pyrazinecarboxamide], for which the activation at 10 µM on 348 GPCRs [1] (setting [11]) was found to be 0.0461%. Besides, the activation at 100 µM on 348 GPCRs [2] (GPCR α1D (adrenoceptor alpha 1D), 100μM, read-out: % GPCR activation compared to TPA) is 1.16%; on 348 GPCRs [3] (setting [12]), 1.46%; at 348 GPCRs [4] (GPCR GPR110 (G-protein-coupled receptor 110 (ADGRF1)), 100μM, read-out: % GPCR activation compared to TPA) it was -3.88%; on 348 GPCRs [5] (setting [13]) it was 2.49%.
`CCC(CC)COC(=O)[C@H](C)N[P@](=O)(OC[C@H]1O[C@@](C#N)(c2ccc3c(N)ncnn23)[C@H](O)[C@@H]1O)Oc1ccccc1` [remdesivir]: the figures for the activation at 10 µM on 348 GPCRs [1] (setting [6]), on 348 GPCRs [2] (setting [7]) and on 348 GPCRs [4] (setting [9]) were 0.0536%, 1.67% and -1.5%, respectively. The results for the activation at 100 µM at 348 GPCRs [3] (setting [8]) and on 348 GPCRs [5] (setting [10]) were 0.33% and 3.92%, respectively.
Turning to `N#C[C@@]1(c2ccc3c(N)ncnn23)O[C@H](CO)[C@@H](O)[C@H]1O` [GS441524], the activation at 10 µM at 348 GPCRs [1] (setting [11]) was 2.25%; on 348 GPCRs [2] (setting [14]), -1.11%; on 348 GPCRs [4] (setting [15]) it was -1.67%. Besides, the activation at 100 µM on 348 GPCRs [3] (setting [12]) was -1.86%; on 348 GPCRs [5] (setting [13]) it was 0.212%.
As for `CC(C)C(=O)OC[C@H]1O[C@@H](n2ccc(NO)nc2=O)[C@H](O)[C@@H]1O` [molnupiravir], the activation at 10 µM is -0.522% on 348 GPCRs [1] (setting [11]), 0.273% at 348 GPCRs [2] (setting [14]) and -0.00488% at 348 GPCRs [4] (setting [15]). Also, the activation at 100 µM at 348 GPCRs [3] (setting [12]) was -3.13%; at 348 GPCRs [5] (setting [13]), -0.247%.

For the origin of these results see PMC10175918 (Communications Biology, 2023).
